According to patent publication US12043599B2, “Herbicidal compounds” (SYNGENTA PARTICIPATIONS AG, priority 2018, dated 2024):

Columns and labels:
Type in all cases: in vivo
Settings in all cases: 250 g/h, evaluated after 13 days
Lolium perenne (LOLPE) [1] = assay: Pre-emergence herbicidal glasshouse test, percentage damage
Description: (§1) Seeds of a variety of test species are sown in standard soil in pots (Lolium perenne (LOLPE), Setaria faberi (SETFA), Alopecurus myosuroides (ALOMY), Echinochloa crus-galli (ECHCG), Avena fatua (AVEFA)). After cultivation for one day (pre-emergence) or after 8 days cultivation (post-emergence) under controlled conditions in a glasshouse (at 24/16° C., day/night; 14 hours light; 65% humidity), the plants are sprayed with an aqueous spray solution derived from the formulation of the technical active ingredient in acetone/water (50:50) solution containing 0.5% Tween 20 (polyoxyethelyene sorbitan monolaurate, CAS RN 9005-64-5). Compounds are applied at […]. The test plants are then grown in a glasshouse under controlled conditions in a glasshouse (at 24/16° C., day/night; 14 hours light; 65% humidity) and watered twice daily. After 13 days for pre and post-emergence, the test is evaluated for the percentage damage caused to the plant. The biological activities are shown in the following table on a five point scale (5=80-100%; 4=60-79%; 3=40-59%; 2=20-39%; 1=0-19%).

Avena fatua (AVEFA) [2] = assay: as above
Description: as §1

Setaria faberi (SETFA) [3] = assay: as above
Description: as §1

[4] = test system: Echinochloa crus-galli (ECHCG); assay: as above
Description: as §1

Lolium perenne (LOLPE) [5] = assay: Post-emergence herbicidal glasshouse test, percentage damage
Description: as §1

Avena fatua (AVEFA) [6] = assay: as above
Description: as §1

[7] = test system: Echinochloa crus-galli (ECHCG); assay: as above
Description: as §1

Setaria faberi (SETFA) [8] = assay: as above
Description: as §1
Using procedures outlines above, wheat and barley crop plants and a weed species (SETFA) are treated post-emergence with compound A11 of the present invention or comparator compound C1 (Compound A-38 from WO2014/096289) at the application rates indicated. The compounds were also applied to wheat in conjunction with the safener compound cloquintocet-mexyl (CQC) at 50 g/ha.

Compound | LOLPE PRE percentage damage (five point scale) (Lolium perenne (LOLPE) [1]) | AVEFA PRE percentage damage (five point scale) (Avena fatua (AVEFA) [2]) | SETFA PRE percentage damage (five point scale) (Setaria faberi (SETFA) [3]) | ECHCG PRE percentage damage (five point scale) [4] | LOLPE POST percentage damage (five point scale) (Lolium perenne (LOLPE) [5]) | AVEFA POST percentage damage (five point scale) (Avena fatua (AVEFA) [6]) | ECHCG POST percentage damage (five point scale) [7] | SETFA POST percentage damage (five point scale) (Setaria faberi (SETFA) [8])
CC#Cc1cc(C)c(C2C(=O)CC3(CCN(C(=O)c4nccn4C)CC3)CC2=O)c(C)c1 [Compound A112] | 5 (5=80-100%) | 5 (5=80-100%) | 5 (5=80-100%) | 5 (5=80-100%) | 5 (5=80-100%) | 5 (5=80-100%) | 5 (5=80-100%) | 5 (5=80-100%)
CC#Cc1cc(C)c(C2=C(OC(=O)OC)CC3(CCN(C(=O)NC(=O)c4ccccn4)CC3)CC2=O)c(C)c1 [Compound P46] | 5 (5=80-100%) | 2 (2=20-39%) | 5 (5=80-100%) | 5 (5=80-100%) | 5 (5=80-100%) | 5 (5=80-100%) | 5 (5=80-100%) | 5 (5=80-100%)
CC#Cc1cc(C)c(C2C(=O)CC3(CCN(C(=O)c4cnc(C)cn4)CC3)CC2=O)c(C)c1 [Compound A127] | 5 (5=80-100%) | 5 (5=80-100%) | 5 (5=80-100%) | 5 (5=80-100%) | 5 (5=80-100%) | 5 (5=80-100%) | 5 (5=80-100%) | 5 (5=80-100%)
CC#Cc1cc(C)c(C2C(=O)CC3(CCN(C(=O)c4ccc(OC)cn4)CC3)CC2=O)c(C)c1 [Compound A121] | 5 (5=80-100%) | 4 (4=60-79%) | 5 (5=80-100%) | 5 (5=80-100%) | 5 (5=80-100%) | 5 (5=80-100%) | 5 (5=80-100%) | 5 (5=80-100%)
CC#Cc1cc(C)c(C2C(=O)CC3(CCN(C(=O)NC(=O)C(C)C)CC3)CC2=O)c(C)c1 [Compound A142] | 5 (5=80-100%) | 4 (4=60-79%) | 5 (5=80-100%) | 5 (5=80-100%) | 5 (5=80-100%) | 5 (5=80-100%) | 5 (5=80-100%) | 5 (5=80-100%)
CC#Cc1cc(C)c(C2C(=O)CC3(CCN(C(=O)c4nccnc4C)CC3)CC2=O)c(C)c1 [Compound A138] | 5 (5=80-100%) | 5 (5=80-100%) | 5 (5=80-100%) | 5 (5=80-100%) | 5 (5=80-100%) | 5 (5=80-100%) | 5 (5=80-100%) | 5 (5=80-100%)
CC#Cc1cc(C)c(C2C(=O)CC3(CCN(C(=O)CCOC)CC3)CC2=O)c(C)c1 [Compound A124] | 5 (5=80-100%) | 5 (5=80-100%) | 5 (5=80-100%) | 5 (5=80-100%) | 5 (5=80-100%) | 5 (5=80-100%) | 5 (5=80-100%) | 5 (5=80-100%)
CC#Cc1cc(C)c(C2C(=O)CC3(CCN(C(=O)C4CCOC4)CC3)CC2=O)c(C)c1 (centres unmarked) [Compound A129] | 5 (5=80-100%) | 5 (5=80-100%) | 5 (5=80-100%) | 5 (5=80-100%) | 5 (5=80-100%) | 5 (5=80-100%) | 5 (5=80-100%) | 5 (5=80-100%)
CC#Cc1cc(C)c(C2C(=O)CC3(CCN(C(=O)c4cocn4)CC3)CC2=O)c(C)c1 [Compound A123] | 5 (5=80-100%) | 5 (5=80-100%) | 5 (5=80-100%) | 5 (5=80-100%) | 5 (5=80-100%) | 5 (5=80-100%) | 5 (5=80-100%) | 5 (5=80-100%)
CC#Cc1cc(C)c(C2C(=O)CC3(CCN(C(=O)C4CCCOC4)CC3)CC2=O)c(C)c1 (centres unmarked) [Compound A128] | 5 (5=80-100%) | 3 (3=40-59%) | 5 (5=80-100%) | 5 (5=80-100%) | 5 (5=80-100%) | 5 (5=80-100%) | 5 (5=80-100%) | 4 (4=60-79%)
CC#Cc1cc(C)c(C2C(=O)CC3(CCN(C(=O)c4ncccc4C#N)CC3)CC2=O)c(C)c1 [Compound A114] | 5 (5=80-100%) | 4 (4=60-79%) | 5 (5=80-100%) | 5 (5=80-100%) | 5 (5=80-100%) | 5 (5=80-100%) | 5 (5=80-100%) | 5 (5=80-100%)
CC#Cc1cc(C)c(C2C(=O)CC3(CCN(C(=O)CC4CCOCC4)CC3)CC2=O)c(C)c1 [Compound A109] | 5 (5=80-100%) | 5 (5=80-100%) | 5 (5=80-100%) | 5 (5=80-100%) | 5 (5=80-100%) | 5 (5=80-100%) | 5 (5=80-100%) | 5 (5=80-100%)
CC#Cc1cc(C)c(C2C(=O)CC3(CCN(C(=O)c4ccnc(F)c4)CC3)CC2=O)c(C)c1 [Compound A125] | 5 (5=80-100%) | 5 (5=80-100%) | 5 (5=80-100%) | 5 (5=80-100%) | 5 (5=80-100%) | 5 (5=80-100%) | 5 (5=80-100%) | 5 (5=80-100%)
CC#Cc1cc(C)c(C2C(=O)CC3(CCN(C(=O)C4COCCO4)CC3)CC2=O)c(C)c1 (centres unmarked) [Compound A133] | 5 (5=80-100%) | 5 (5=80-100%) | 5 (5=80-100%) | 5 (5=80-100%) | 5 (5=80-100%) | 5 (5=80-100%) | 5 (5=80-100%) | 5 (5=80-100%)
CC#Cc1cc(C)c(C2C(=O)CC3(CCN(C(=O)c4csnn4)CC3)CC2=O)c(C)c1 [Compound A135] | 5 (5=80-100%) | 5 (5=80-100%) | 5 (5=80-100%) | 5 (5=80-100%) | 5 (5=80-100%) | 5 (5=80-100%) | 5 (5=80-100%) | 5 (5=80-100%)
CC#Cc1cc(C)c(C2C(=O)CC3(CCN(C(=O)c4cnc(C#N)s4)CC3)CC2=O)c(C)c1 [Compound A106] | 3 (3=40-59%) | 2 (2=20-39%) | 4 (4=60-79%) | 4 (4=60-79%) | 3 (3=40-59%) | 5 (5=80-100%) | 3 (3=40-59%) | 5 (5=80-100%)
